Measurements from PubChem BioAssay AID1159536 (DiRusso Lab, Biochemistry Department, University of Nebraska, 2015).
Records with an inconclusive call do not appear. Calls of active or inactive are those of the source. How the calls were made is not given here.

Test system: Chlamydomonas reinhardtii, Nile Red lipid fluorescence, 72 h
Experiment: compounds raising TAG storage in Chlamydomonas – qHTS, Chlamydomonas reinhardtii, dose response (AID 1159536)

Structure (SMILES)	EC50
Cc1ccc(C)c(N2CCN(C3CCc4ccccc4C3)CC2)c1 (centres undefined)	16.7 µM
C=CCn1c(SCC(=O)O)nnc1-c1ccc([N+](=O)[O-])cc1	13.6 µM (inactive)
Clc1cc(Br)ccc1OCCCN1CCOCC1	4.43 µM
Cc1ccc(OCC(O)CN(C)C2CCCCC2)cc1C (centres undefined)	4.42 µM
COCCNS(=O)(=O)c1cc(Cl)ccc1OC	2.98 µM (inactive)
CCOc1ccc(C2=CSC3=NCCN23)cc1	13.7 µM (inactive)
COc1cc(C)c(CN2CCCN(C)CC2)cc1C	10.3 µM
O=C1CC(N2CCc3ccccc3C2)C(=O)N1c1ccc([N+](=O)[O-])cc1 (centres undefined)	15.7 µM (inactive)
Nn1c(SCC(=O)NC23CC4CC(CC(C4)C2)C3)nnc1-c1ccc(Cl)cc1Cl	7.04 µM
COc1ccc(CCN(C)Cc2ccc([N+](=O)[O-])cc2)cc1OC	10 µM
CC(C)NCC(=O)NC12CC3CC(CC(C3)C1)C2	0.638 µM
COc1cccc(N2CCN(C3CCCC(C)C3)CC2)c1 (centres undefined)	6.34 µM
O=C(O)C1C2C=CC(O2)C1C(=O)Nc1ccccc1F (centres undefined)	14.8 µM (inactive)
COc1ccc(C(=O)Nc2sc3c(c2C(N)=O)CCC(C)C3)c(OC)c1 (centres undefined)	15.8 µM (inactive)
Cc1ccc(CN(C)C2CCN(C)CC2)s1	10.2 µM
CCC(C)N1CCN(Cc2ccc([N+](=O)[O-])cc2)CC1 (centres undefined)	10.5 µM
O=C(c1ccc([N+](=O)[O-])cc1)N1CCN(CC2CC3C=CC2C3)CC1 (centres undefined)	6.07 µM
Cc1ccc(OCCOCCN2CCOCC2)c([N+](=O)[O-])c1	2.7 µM
Clc1cc(Br)ccc1OCCCCN1CCOCC1	1.31 µM
COc1ccc(OC)c(CNCCc2ccc([N+](=O)[O-])cc2)c1	0.646 µM
O=C1CC(N2CCN(Cc3ccc4c(c3)OCO4)CC2)C(=O)N1CCc1ccccc1 (centres undefined)	2.63 µM
Cc1ccc(OCCCCN2CCCC2)cc1C	5.2 µM
Cc1cc(Cl)c(OCCOCCN2CCN(C)CC2)c(Br)c1	3.1 µM

Structure (SMILES)	EC50
COc1ccc(CN2CCN(c3ncnc4sc5c(c34)CCCC5)CC2)cc1	4.83 µM
COc1ccc(NC(=O)CCC2CCCCC2)c([N+](=O)[O-])c1	6.82 µM
COc1cc(C)c(CN2CCN(Cc3ccc4c(c3)OCO4)CC2)cc1C	2.04 µM
CCN1CCN(Cc2ccc(N(CC)CC)cc2)CC1	0.498 µM
CN1CCC(N(C)Cc2cc(Cl)ccc2O)CC1	2.56 µM
Nc1ccc(C(=O)Nc2ccc(Cl)cc2Cl)cc1	1.49 µM
O=C(NCCc1ccc(Cl)cc1)C(=O)Nc1nccs1	10.2 µM (inactive)
O=C(Nc1ccc([N+](=O)[O-])cc1)c1c(F)c(F)c(F)c(F)c1F	1.36 µM (inactive)
CC1CCCCN1S(=O)(=O)c1ccc(NC(=O)c2ccc(Cl)cc2Cl)cc1 (centres undefined)	2.56 µM (inactive)
N#Cc1c(-n2ncnc2-c2cccnc2)sc2c1CCCCC2	2.47 µM (inactive)
COc1ccccc1N1CCN(Cc2ccc(Cl)cc2)CC1	1.61 µM
Clc1ccccc1OCCCCN1CCOCC1	5.38 µM
Cc1cc(OCC(O)CN2CCN(CCO)CC2)ccc1C(C)C (centres undefined)	0.81 µM
C1=CC2CC1CC2CN1CCN(C2CCC(c3ccccc3)CC2)CC1 (centres undefined)	1.46 µM
Cc1cc(C)c(S(=O)(=O)NCCCN2CCOCC2)cc1Br	0.769 µM
CC(C)(Oc1ccc(Cl)cc1)C(=O)Nc1ccc(Br)cc1F	1.81 µM (inactive)
COc1ccc(CNCc2ccc(C)cc2)c(OC)c1	9.94 µM (inactive)
C=CCn1c(SCC(=O)NCCc2ccccc2)nnc1-c1ccc(Cl)cc1Cl	4.05 µM
COc1ccc(C(=O)c2ccc(N3CCN(C)CC3)c([N+](=O)[O-])c2)cc1	1.27 µM (inactive)
O=C(Nc1ccc([N+](=O)[O-])cc1)c1ccccc1Cl	5.11 µM
Cc1ccccc1N1CCN(Cc2ccc(O)cc2)CC1	10 µM
CC1CCCN(C2CCN(S(=O)(=O)c3ccc(F)cc3)CC2)C1 (centres undefined)	13.1 µM
COc1ccccc1N1CCN(C2CCN(Cc3cccc(F)c3)CC2)CC1	10.6 µM

Structure (SMILES)	EC50
CC(=O)Nc1ccc(S(=O)(=O)Nc2cc([N+](=O)[O-])ccc2C)cc1	3.21 µM (inactive)
COc1cccc(N2CCN(Cc3ccsc3)CC2)c1	10 µM
O=[N+]([O-])c1ccc(CN2CCN(C3CC4CCC3C4)CC2)cc1 (centres undefined)	2.53 µM
CN1CCN(CC#CC=C(c2ccccc2)c2ccccc2)CC1	2.57 µM (inactive)
CCN(CC)CC#CCOc1ccccc1	11.6 µM
CCN1CCN(C2CCC(c3ccccc3)CC2)CC1 (centres undefined)	1.77 µM
CN1CC=C(CNc2cccc3c2CCCC3)CC1	2.58 µM
COc1cc(CN2CCN(Cc3ccc([N+](=O)[O-])cc3)CC2)cc(OC)c1	3.78 µM
Cc1ccc(N2CCN(C3CCCCCC3)CC2)cc1	0.649 µM
CCN(CC(O)COc1ccc(Br)cc1)C1CCCCC1 (centres undefined)	10.2 µM
Cc1cc(Br)ccc1OCCCN1CCN(C)CC1	2.18 µM
Cc1ccsc1/C=C(\C#N)c1nc(-c2ccc([N+](=O)[O-])cc2)cs1	14.9 µM (inactive)
C=CCN1C(=O)C(=O)c2cc(Br)ccc21	5.89 µM
Cc1cc(Cl)cc(C)c1OCCn1ccnc1	1.29 µM
CCOc1ccc(CN2CCN(c3ccccc3C)CC2)cc1	1.3 µM
CCC1CCC(N2CCN(CC)CC2)CC1 (centres undefined)	2.48 µM
CCC(C)c1ccccc1OCCCCN1CCCC1 (centres undefined)	2.68 µM
CCN1CCC(N2CCN(c3ccc(Cl)cc3)CC2)CC1	2.59 µM
Cc1cccc(-c2cc(NC(=O)c3ccc([N+](=O)[O-])cc3)n[nH]2)c1	6.94 µM
CC(C)NC(=O)c1ccccc1NC(=O)c1ccc(Br)cc1	1.01 µM
COc1cccc(NC2=C(N(C)C)C(=O)c3ccccc3C2=O)c1	1.87 µM (inactive)
CSc1ccc(CN2CCSCC2)cc1	10.5 µM (inactive)
CN1CCN(CCOc2ccc(C(C)(C)c3ccccc3)cc2)CC1	2.37 µM (inactive)

Structure (SMILES)	EC50
CC(CCc1ccc(O)cc1)NC1C2CC3CC(C2)CC1C3 (centres undefined)	2.74 µM
CC1CN(CC(O)COc2ccc(C(C)(C)C)cc2)CC(C)O1 (centres undefined)	9.95 µM
c1ccc(CCc2nc(-c3ccncc3)no2)cc1	5.02 µM
Oc1ccccc1CNCCC12CC3CC(CC(C3)C1)C2	2.49 µM (inactive)
C/C(=C\c1ccccc1)CN1CCN(C)CC1	1.01 µM
Cc1ccc(C(=O)Nc2ccccc2C(=O)NC(C)C)cc1[N+](=O)[O-]	0.635 µM (inactive)
Cc1cc(Br)ccc1OCCOCCN1CCOCC1	7.81 µM
C=CCc1ccccc1OCC(O)CN(C)C1CCCCC1 (centres undefined)	4.88 µM
CCOc1ccc(CN2CCN(c3ccc([N+](=O)[O-])cc3)CC2)cc1	2.64 µM
Cc1ccc(C)c(N2CCN(CC3CC4C=CC3C4)CC2)c1 (centres undefined)	30.4 µM
O=C(Nc1ccc([N+](=O)[O-])cc1)c1cccc(Cl)c1Cl	2.35 µM (inactive)
CC(=O)N(C1=C(Nc2ccccc2)C(=O)c2ccccc2C1=O)c1ccccc1	15.2 µM (inactive)
CC(C)(Oc1ccc(Cl)cc1)C(=O)N1CCN(c2ccc(F)cc2)CC1	2.13 µM (inactive)
Clc1ccc(CN2CCCCCC2)cc1	2.05 µM
CN(CC(O)COc1ccc(F)cc1)C1CCCCC1 (centres undefined)	11.2 µM
CN1CCN(C2C3CC4CC(C3)CC2C4)CC1 (centres undefined)	9.7 µM
O=S(=O)(c1ccc(F)cc1)n1cccc1	0.684 µM (inactive)
CN1CCCN(Cc2cccc(Oc3ccccc3)c2)CC1	10.1 µM
Cc1cc(C)c(S(=O)(=O)N2CCN(C)CC2)cc1Br	15.8 µM
COc1cccc(N2CCN(Cc3ccc([N+](=O)[O-])cc3)CC2)c1	0.667 µM
